Experimental data from patent EP4741420A1, “PHARMACEUTICAL COMPOSITION FOR PREVENTING OR TREATING OBESITY COMPRISING GLP ANALOGUE AS ACTIVE INGREDIENT” (priority 2023, dated 2025).
Read-outs that look alike come from different tables or passages of the source. Numbered stars: 1 amine (or outer) side, 2 acyl side, 3 side chain; on linkers, the order of the positions; unused ones are H or OH. Side chains are listed from the residue outwards. Ends that are not written are not given here. Peptide text beside a SMILES is read from it. * marks the point of attachment. mPEG 3.4 kDa = 3.4 kDa maleimidated PEG on Cys; C18 diacid = O=C(O)CCCCCCCCCCCCCCCCC(=O)*; γGlu = O=C(O)[C@H](CCC(=O)[*:2])N[*:1]; Palmitoyl = CCCCCCCCCCCCCCCC(=O)*

Columns and labels:
GLP-2 = molecular target: T1, GLP-2 (Homo sapiens, UniProt O95838); assay: GLP-2 activity, cell-based cAMP assay (same method as Example 2)
T1 sequence (O95838 1-553): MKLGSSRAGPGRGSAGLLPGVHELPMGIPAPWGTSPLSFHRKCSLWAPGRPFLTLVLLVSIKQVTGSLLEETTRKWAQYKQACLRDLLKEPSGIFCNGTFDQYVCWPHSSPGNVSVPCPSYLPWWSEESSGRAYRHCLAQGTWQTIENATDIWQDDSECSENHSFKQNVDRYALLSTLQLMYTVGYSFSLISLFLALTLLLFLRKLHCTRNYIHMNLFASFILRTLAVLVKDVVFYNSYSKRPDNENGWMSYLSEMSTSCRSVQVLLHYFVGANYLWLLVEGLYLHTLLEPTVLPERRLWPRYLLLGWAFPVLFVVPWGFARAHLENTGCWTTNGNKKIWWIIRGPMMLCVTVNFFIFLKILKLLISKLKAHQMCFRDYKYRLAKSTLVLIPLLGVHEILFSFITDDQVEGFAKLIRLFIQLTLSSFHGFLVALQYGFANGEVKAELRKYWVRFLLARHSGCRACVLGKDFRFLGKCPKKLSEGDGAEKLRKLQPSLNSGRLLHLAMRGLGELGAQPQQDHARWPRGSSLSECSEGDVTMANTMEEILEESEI

[1] = Mouse PK after single subcutaneous administration, LC-MS/MS of plasma; type: in vivo, mice; settings: for AUC(0-t) / Cmax / half-life / Tmax: mouse, in vivo, sc; for Cmax: read-out: Cmax
Protocol: Each of the experimental groups and the control was subcutaneously administered once to the dorsal area of a total of 12 mice using a 1 mL syringe equipped with a 26-gauge needle at a dose of 0.2 mg/5 mL/kg. After drug administration, approximately 0.04 to 0.05 mL of blood was collected per individual at the time scheduled for the orbital vein (4 mice were alternately sampled), and the blood collection times were 1, 2, 4, 8, 24 ,32 ,48, 56, 72, 96, and 120 hours. All plasma samples were analyzed using a self-developed LC-MS/MS assay. Pharmacokinetic analysis of blood drugs was performed using non-compartmental analysis, and analysis of pharmacokinetic parameters was performed using Phoenix WinNolin 64 (Version. 8.3.5 340).

[2] = molecular target: GLP-1R (on GLP-1R/CHO cells, DiscoverX 95-0062C2) (UniProt P43220 24-463); assay: cell-based or functional assay
[3] = 0.2 mg/kg, C57BL/6N male mice, single subcutaneous dose 0.2 mg/5 mL/kg, plasma
[4] = 0.2 mg/kg, C57BL/6N male mice, single subcutaneous dose 0.2 mg/5 mL/kg, plasma, read-out: T1/2 (converted)
[5] = 0.2 mg/kg, C57BL/6N male mice, single subcutaneous dose 0.2 mg/5 mL/kg, plasma, read-out: Tmax

Chain of GLP-1R (on GLP-1R/CHO cells, DiscoverX 95-0062C2) (P43220 24-463 limits assumed): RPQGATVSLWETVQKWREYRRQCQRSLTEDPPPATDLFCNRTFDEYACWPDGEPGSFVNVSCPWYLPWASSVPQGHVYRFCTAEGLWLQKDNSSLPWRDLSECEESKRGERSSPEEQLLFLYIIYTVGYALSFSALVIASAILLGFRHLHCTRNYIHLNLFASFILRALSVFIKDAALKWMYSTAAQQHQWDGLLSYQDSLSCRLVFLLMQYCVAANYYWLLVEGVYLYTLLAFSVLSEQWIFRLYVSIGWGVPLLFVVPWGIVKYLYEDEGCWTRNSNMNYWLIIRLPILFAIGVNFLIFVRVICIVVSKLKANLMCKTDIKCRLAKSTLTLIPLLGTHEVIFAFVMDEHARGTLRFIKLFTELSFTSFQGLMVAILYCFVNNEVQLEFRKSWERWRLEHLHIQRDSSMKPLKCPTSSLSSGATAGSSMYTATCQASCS

HGEGTFTSDLSTYLDALAARDFINWLIQTKITD [HU020]
EC50 (GLP-2; Example 5): 650 nM

CC[C@H](C)[C@H](NC(=O)[C@H](Cc1ccccc1)NC(=O)[C@H](CC(=O)O)NC(=O)[C@H](CCCNC(=N)N)NC(=O)[C@H](C)NC(=O)[C@H](C)NC(=O)[C@H](CC(C)C)NC(=O)[C@H](C)NC(=O)[C@H](CC(=O)O)NC(=O)[C@H](CC(C)C)NC(=O)[C@H](Cc1ccc(O)cc1)NC(=O)[C@@H](NC(=O)[C@H](CO)NC(=O)[C@H](CC(C)C)NC(=O)[C@H](CC(=O)O)NC(=O)[C@H](CO)NC(=O)[C@@H](NC(=O)[C@H](Cc1ccccc1)NC(=O)[C@@H](NC(=O)CNC(=O)[C@H](CCC(=O)O)NC(=O)C(C)(C)NC(=O)[C@@H](N)Cc1c[nH]cn1)[C@@H](C)O)[C@@H](C)O)[C@@H](C)O)C(=O)N[C@@H](CC(N)=O)C(=O)N[C@@H](Cc1c[nH]c2ccccc12)C(=O)N[C@@H](CC(C)C)C(=O)N[C@H](C(=O)N[C@@H](CCC(N)=O)C(=O)N[C@H](C(=O)N[C@@H](CCCCN)C(=O)N[C@H](C(=O)N[C@H](C(=O)N[C@@H](CC(=O)O)C(=O)N[C@@H](CCCCN)C(=O)N[C@@H](CCCCNC(=O)CC[C@H](NC(=O)CCCCCCCCCCCCCCCCC(=O)O)C(=O)O)C(=O)O)[C@@H](C)O)[C@@H](C)CC)[C@@H](C)O)[C@@H](C)CC [HU020M4] (HELM PEPTIDE1{H.[Aib].E.G.T.F.T.S.D.L.S.T.Y.L.D.A.L.A.A.R.D.F.I.N.W.L.I.Q.T.K.I.T.D.K.K}|PEPTIDE2{[O=C(O)CCCCCCCCCCCCCCCCC(=O)[*:2]].[gGlu]}$PEPTIDE1,PEPTIDE2,35:R3-2:R2$$$V2.0)
half-life longer than that of semaglutide ([1]; mouse PK, relative to semaglutide): 1.5 fold | AUC(0-t) [1, 3]: 23800 ng·h/mL | Cmax [1, 3]: 810 ng/mL | half-life [1, 4]: 10.7 h | Tmax [1, 5]: 8 h

CCCCCCCCCCCCCCCC(=O)N[C@@H](CCC(=O)NCCCC[C@H](NC(=O)[C@H](CCCCN)NC(=O)[C@H](CC(=O)O)NC(=O)[C@@H](NC(=O)[C@@H](NC(=O)[C@H](CCCCN)NC(=O)[C@@H](NC(=O)[C@H](CCC(N)=O)NC(=O)[C@@H](NC(=O)[C@H](CC(C)C)NC(=O)[C@H](Cc1c[nH]c2ccccc12)NC(=O)[C@H](CC(N)=O)NC(=O)[C@@H](NC(=O)[C@H](Cc1ccccc1)NC(=O)[C@H](CC(=O)O)NC(=O)[C@H](CCCNC(=N)N)NC(=O)[C@H](C)NC(=O)[C@H](C)NC(=O)[C@H](CC(C)C)NC(=O)[C@H](C)NC(=O)[C@H](CC(=O)O)NC(=O)[C@H](CC(C)C)NC(=O)[C@H](Cc1ccc(O)cc1)NC(=O)[C@@H](NC(=O)[C@H](CO)NC(=O)[C@H](CC(C)C)NC(=O)[C@H](CC(=O)O)NC(=O)[C@H](CO)NC(=O)[C@@H](NC(=O)[C@H](Cc1ccccc1)NC(=O)[C@@H](NC(=O)CNC(=O)[C@H](CCC(=O)O)NC(=O)C(C)(C)NC(=O)[C@@H](N)Cc1c[nH]cn1)[C@@H](C)O)[C@@H](C)O)[C@@H](C)O)[C@@H](C)CC)[C@@H](C)CC)[C@@H](C)O)[C@@H](C)CC)[C@@H](C)O)C(=O)O)C(=O)O [HU020M3] (HELM PEPTIDE1{H.[Aib].E.G.T.F.T.S.D.L.S.T.Y.L.D.A.L.A.A.R.D.F.I.N.W.L.I.Q.T.K.I.T.D.K.K}|PEPTIDE2{[CCCCCCCCCCCCCCCC(=O)[*:2]].[gGlu]}$PEPTIDE1,PEPTIDE2,35:R3-2:R2$$$V2.0)
AUC(0-t) [1, 3]: 5070 ng·h/mL | Cmax [1, 3]: 315 ng/mL | half-life [1, 4]: 7 h | Tmax [1, 5]: 12 h

CC[C@H](C)[C@H](NC(=O)[C@H](Cc1ccccc1)NC(=O)[C@H](CC(=O)O)NC(=O)[C@H](CCCNC(=N)N)NC(=O)[C@H](C)NC(=O)[C@H](C)NC(=O)[C@H](CC(C)C)NC(=O)[C@H](C)NC(=O)[C@H](CC(=O)O)NC(=O)[C@H](CC(C)C)NC(=O)[C@H](Cc1ccc(O)cc1)NC(=O)[C@@H](NC(=O)[C@H](CO)NC(=O)[C@H](CC(C)C)NC(=O)[C@H](CC(=O)O)NC(=O)[C@H](CO)NC(=O)[C@@H](NC(=O)[C@H](Cc1ccccc1)NC(=O)[C@@H](NC(=O)CNC(=O)[C@H](CCC(=O)O)NC(=O)C(C)(C)NC(=O)[C@@H](N)Cc1c[nH]cn1)[C@@H](C)O)[C@@H](C)O)[C@@H](C)O)C(=O)N[C@@H](CC(N)=O)C(=O)N[C@@H](Cc1c[nH]c2ccccc12)C(=O)N[C@@H](CC(C)C)C(=O)N[C@H](C(=O)N[C@@H](CCC(N)=O)C(=O)N[C@H](C(=O)N[C@@H](CCCCN)C(=O)N[C@H](C(=O)N[C@H](C(=O)N[C@@H](CC(=O)O)C(=O)N[C@@H](CCCCN)C(=O)N[C@@H](CCCCNC(=O)CC[C@H](NC(=O)CCCCCCCCCCCCCCCCCCC(=O)O)C(=O)O)C(=O)O)[C@@H](C)O)[C@@H](C)CC)[C@@H](C)O)[C@@H](C)CC [HU020M5] (HELM PEPTIDE1{H.[Aib].E.G.T.F.T.S.D.L.S.T.Y.L.D.A.L.A.A.R.D.F.I.N.W.L.I.Q.T.K.I.T.D.K.K}|PEPTIDE2{[O=C(O)CCCCCCCCCCCCCCCCCCC(=O)[*:2]].[gGlu]}$PEPTIDE1,PEPTIDE2,35:R3-2:R2$$$V2.0)
AUC(0-t) [1, 3]: 20500 ng·h/mL | Cmax [1, 3]: 661 ng/mL | half-life [1, 4]: 15.2 h | Tmax [1, 5]: 8 h

CC[C@H](C)[C@H](NC(=O)[C@H](Cc1ccccc1)NC(=O)[C@H](CC(=O)O)NC(=O)[C@H](CCCNC(=N)N)NC(=O)[C@H](C)NC(=O)[C@H](C)NC(=O)[C@H](CC(C)C)NC(=O)[C@H](C)NC(=O)[C@H](CC(=O)O)NC(=O)[C@H](CC(C)C)NC(=O)[C@H](Cc1ccc(O)cc1)NC(=O)[C@@H](NC(=O)[C@H](CO)NC(=O)[C@H](CC(C)C)NC(=O)[C@H](CC(=O)O)NC(=O)[C@H](CO)NC(=O)[C@@H](NC(=O)[C@H](Cc1ccccc1)NC(=O)[C@@H](NC(=O)CNC(=O)[C@H](CCC(=O)O)NC(=O)CNC(=O)[C@@H](N)Cc1c[nH]cn1)[C@@H](C)O)[C@@H](C)O)[C@@H](C)O)C(=O)N[C@@H](CC(N)=O)C(=O)N[C@@H](Cc1c[nH]c2ccccc12)C(=O)N[C@@H](CC(C)C)C(=O)N[C@H](C(=O)N[C@@H](CCC(N)=O)C(=O)N[C@H](C(=O)N[C@@H](CCCCN)C(=O)N[C@H](C(=O)N[C@H](C(=O)N[C@@H](CC(=O)O)C(=O)N[C@@H](CCCCN)C(=O)N[C@@H](CCCCNC(=O)CC[C@H](NC(=O)CCCCCCCCCCCCCCCCC(=O)O)C(=O)O)C(=O)O)[C@@H](C)O)[C@@H](C)CC)[C@@H](C)O)[C@@H](C)CC [HU020M1] (HELM PEPTIDE1{H.G.E.G.T.F.T.S.D.L.S.T.Y.L.D.A.L.A.A.R.D.F.I.N.W.L.I.Q.T.K.I.T.D.K.K}|PEPTIDE2{[O=C(O)CCCCCCCCCCCCCCCCC(=O)[*:2]].[gGlu]}$PEPTIDE1,PEPTIDE2,35:R3-2:R2$$$V2.0)
Tmax ([1]; male, C57BL/6N): 12 h | half-life ([1]; male, C57BL/6N): 13.8 h

CC[C@H](C)[C@H](NC(=O)[C@H](Cc1ccccc1)NC(=O)[C@H](CC(=O)O)NC(=O)[C@H](CCCNC(=N)N)NC(=O)[C@H](C)NC(=O)[C@H](C)NC(=O)[C@H](CC(C)C)NC(=O)[C@H](CC(N)=O)NC(=O)[C@H](CC(=O)O)NC(=O)[C@H](CC(C)C)NC(=O)[C@@H](NC(=O)[C@@H](NC(=O)[C@H](CC(N)=O)NC(=O)[C@H](CCSC)NC(=O)[C@H](CCC(=O)O)NC(=O)[C@H](CC(=O)O)NC(=O)[C@H](CO)NC(=O)[C@H](Cc1ccccc1)NC(=O)[C@H](CO)NC(=O)CNC(=O)[C@H](CC(=O)O)NC(=O)[C@H](C)NC(=O)[C@@H](N)Cc1c[nH]cn1)[C@@H](C)O)[C@@H](C)CC)C(=O)N[C@@H](CC(N)=O)C(=O)N[C@@H](Cc1c[nH]c2ccccc12)C(=O)N[C@@H](CC(C)C)C(=O)N[C@H](C(=O)N[C@@H](CCC(N)=O)C(=O)N[C@H](C(=O)N[C@@H](CCCCN)C(=O)N[C@H](C(=O)N[C@H](C(=O)N[C@@H](CC(=O)O)C(=O)O)[C@@H](C)O)[C@@H](C)CC)[C@@H](C)O)[C@@H](C)CC [GLP-2 (Synthesized), GLP-2, reference compound]
GLP-2 activity Compared to GLP-2 (GLP-2; Example 5, relative to GLP-2): 100%

HGEGTFTSDLSTYLDALAAC(mPEG 3.4 kDa)DFINWLIQTKITDKK([γGlu-Palmitoyl]) [HU020M6]
GLP-1 activity (EC50, pM) [2]: 45.7 pM | GLP-1 activity, Compared to GLP-1 (Exendin-4) [2]: 15.5%

HGEGTFTSDLSTYLDALAARDFINWLIQTKITDKK([γGlu-C18 diacid]) [HU020M1]
GLP-1 activity (EC50, pM) [2]: 113 pM | GLP-1 activity, Compared to GLP-1 (Exendin-4) [2]: 6.3%
